Test results from patent US20260053811A1, “METHODS OF TREATING HYPERTENSION IN OBESE SUBJECTS” (Mineralys Therapeutics, Inc., priority 2022, published 2026).
Marks after values point to notes of the source that are not given here.

Tested on: hypertensive subjects
Test: Seated automated office blood pressure (AOBP) in randomized, placebo-controlled, dose-ranging study
Assay type: in vivo, human
Design: Difference from placebo in change in blood pressure: unit not given here
Experimental: A randomized, double-blinded, placebo-controlled, dose-ranging, multicenter study was conducted to evaluate the effect of orally administered Compound A HBr on blood pressure for the treatment of hypertension in male and female subjects ≥18 years of age.
The study consists of two parts. For enrollment into Part 1 of the study, a subject's value of plasma renin activity (PRA) must be ≤1 ng/mL/h based on morning measurement. If the value of PRA >1 ng/mL/h based on morning measurement, then subjects may be eligible to enter Part 2 of the study.
For Part 1, 163 enrolled subjects ≥18 years of age were randomized into 6 equal treatment groups (1:1:1:1:1:1) to 12.5 mg BID, 25 mg BID, 12.5 mg QD, 50 mg QD, 100 mg QD, or placebo. After a review of interim clinical data, the 2 lowest dose levels (12.5 mg QD and 12.5 mg BID) were stopped for future randomization due to a lack of consistent meaningful reduction of blood pressure, but the patients randomized to that point remained in the study through completion. Thus, after the review of interim clinical data, subjects were randomized into 4 equal treatment groups (1:1:1:1) to 25 mg BID, 50 mg QD, 100 mg QD, or placebo.
For Part 2, 36 enrolled subjects ≥18 years of age were randomized (5:1) to either 100 mg QD Compound A HBr or placebo such that the Compound A HBr treatment group consisted of approximately 30 subjects and the placebo treatment group will consist of approximately 6 subjects.
Subjects orally administered the assigned study drug (Compound A HBr or placebo) according to the assigned dosing regimen for 8 weeks beginning on Study Day 1. All subjects in Part 1 (regardless of dosing group) received BID dosing to preserve the integrity of the blind; active drug is administered as the morning dose for all QD dose groups. Subjects returned to the research facility or were seen by the clinical investigator or approved home health care professional at the end of Study Weeks 1, 2, 3, 4, 5, 6, 7, and 8 (±2 days) for protocol-defined efficacy and safety assessments and procedures, assessment of adverse events (AEs), and confirmation of compliance with study drug usage. Subjects also completed a telephone visit and blood pressure (BP) check at home approximately 3 days post last dose of study drug. Subjects attended up to 14 full clinic visits, including a pre-Screening visit, a Screening/start of Placebo Run-in visit, a second visit during Placebo Run-in, a clinic visit to initiate the ABPM procedure, a Randomization visit, 8 weekly visits during double-blind treatment, and an end-of-study visit scheduled 4 weeks after the last study treatment for final efficacy and safety assessments.
An automated oscillometric sphygmomanometer device was used to measure the subjects' systolic and diastolic blood pressure in office after approximately 5 minutes of rest in the seated position.
The primary endpoint is the change in office-measured (mean of last 2 of 5 unattended measurements using an automated oscillometric sphygmomanometer device after approximately 5 minutes of rest in the seated position) systolic blood pressure (SBP) from baseline to the end of Study Week 8.
Secondary endpoints of this study were: • (a) Change in 24-hour ambulatory blood pressure monitoring (ABPM) parameters (systolic and diastolic) from baseline to the end of Study Week 7. • (b) Change in office-measured SBP from baseline to the end of Study Weeks 1, 2, 3, 4, 5, 6, and 7. • (c) Change in office-measured diastolic blood pressure (DBP) from baseline to the end of Study Weeks 1, 2, 3, 4, 5, 6, 7, and 8. • (d) Proportion of subjects who achieve office-measured BP of ≤130/80 mm Hg by the end of Study Week 8.

[1] = 100 mg QD Part 1, Week 8, Parts 1 & 2 model, FAS

CC(=O)N[C@H]1CC[C@H](NC(=O)CN2CCN(c3nncc(-c4ccc(C)cc4)n3)CC2)CC1 [Compound A HBr]
Placebo-adjusted reduction in AOBP SBP, concomitant use of thiazide diuretics (50 mg QD, Part 1, Week 8): −12.9 mmHg
Difference from placebo in change in blood pressure (50 mg QD, Thiazide No): −4.3
Difference from placebo in change in blood pressure (50 mg QD, Thiazide Yes): −13.2*
Seated AOBP DBP change from baseline (CFB), Mean (SD) (50 mg QD, Week 1, Part 1, FAS): −4.34 (8.86) mmHg
Seated AOBP DBP, Mean (SD) (50 mg QD, Week 1, Part 1, FAS): 80.54 (7.58) mmHg
Seated AOBP SBP change from baseline (CFB), Mean (SD) (50 mg QD, Week 1, Part 1, FAS): −8.32 (14.27) mmHg
Seated AOBP SBP, Mean (SD) (50 mg QD, Week 1, Part 1, FAS): 133.50 (12.23) mmHg
Seated AOBP DBP change from baseline (CFB), Mean (SD) (50 mg QD, Week 2, Part 1, FAS): −5.91 (7.38) mmHg
Seated AOBP DBP, Mean (SD) (50 mg QD, Week 2, Part 1, FAS): 78.96 (8.27) mmHg
Seated AOBP SBP change from baseline (CFB), Mean (SD) (50 mg QD, Week 2, Part 1, FAS): −9.54 (13.78) mmHg
Seated AOBP SBP, Mean (SD) (50 mg QD, Week 2, Part 1, FAS): 132.29 (10.55) mmHg
Seated AOBP DBP change from baseline (CFB), Mean (SD) (50 mg QD, Week 3, Part 1, FAS): −3.84 (8.83) mmHg
Seated AOBP DBP, Mean (SD) (50 mg QD, Week 3, Part 1, FAS): 81.04 (9.15) mmHg
Seated AOBP SBP change from baseline (CFB), Mean (SD) (50 mg QD, Week 3, Part 1, FAS): −9.50 (16.67) mmHg
Seated AOBP SBP, Mean (SD) (50 mg QD, Week 3, Part 1, FAS): 132.32 (13.45) mmHg
LSM Δ with Placebo, seated AOBP DBP (MMRM) (50 mg QD, Week 4, Part 1, FAS): −3.95 mmHg
Modelled (MMRM) LSM (SEM) change from baseline, seated AOBP DBP (50 mg QD, Week 4, Part 1, FAS): −4.49 (1.41) mmHg
Seated AOBP DBP change from baseline (CFB), Mean (SD) (50 mg QD, Week 4, Part 1, FAS): −5.30 (8.33) mmHg
Seated AOBP DBP, Mean (SD) (50 mg QD, Week 4, Part 1, FAS): 79.57 (8.36) mmHg
Seated AOBP SBP change from baseline (CFB), Mean (SD) (50 mg QD, Week 4, Part 1, FAS): −9.07 (15.77) mmHg
Seated AOBP SBP, Mean (SD) (50 mg QD, Week 4, Part 1, FAS): 132.75 (11.85) mmHg
Seated AOBP DBP change from baseline (CFB), Mean (SD) (50 mg QD, Week 5, Part 1, FAS): −6.10 (7.22) mmHg
Seated AOBP DBP, Mean (SD) (50 mg QD, Week 5, Part 1, FAS): 78.58 (7.53) mmHg
Seated AOBP SBP change from baseline (CFB), Mean (SD) (50 mg QD, Week 5, Part 1, FAS): −8.38 (15.19) mmHg
Seated AOBP SBP, Mean (SD) (50 mg QD, Week 5, Part 1, FAS): 134.27 (15.39) mmHg
Seated AOBP DBP change from baseline (CFB), Mean (SD) (50 mg QD, Week 6, Part 1, FAS): −6.26 (8.48) mmHg
Seated AOBP DBP, Mean (SD) (50 mg QD, Week 6, Part 1, FAS): 78.63 (8.17) mmHg
Seated AOBP SBP change from baseline (CFB), Mean (SD) (50 mg QD, Week 6, Part 1, FAS): −10.72 (14.86) mmHg
Seated AOBP SBP, Mean (SD) (50 mg QD, Week 6, Part 1, FAS): 131.11 (12.49) mmHg
Seated AOBP DBP change from baseline (CFB), Mean (SD) (50 mg QD, Week 7, Part 1, FAS): −3.75 (11.03) mmHg
Seated AOBP DBP, Mean (SD) (50 mg QD, Week 7, Part 1, FAS): 80.88 (11.41) mmHg
Seated AOBP SBP change from baseline (CFB), Mean (SD) (50 mg QD, Week 7, Part 1, FAS): −7.69 (18.91) mmHg
Seated AOBP SBP, Mean (SD) (50 mg QD, Week 7, Part 1, FAS): 133.19 (16.39) mmHg
LSM Δ from Placebo, change from baseline in seated AOBP SBP (MMRM) (50 mg QD, Week 8, Part 1, FAS): −9.58 mmHg
LSM Δ with Placebo, seated AOBP DBP (MMRM) (50 mg QD, Week 8, Part 1, FAS): −5.46 mmHg
Modelled (MMRM) LSM (SEM) change from baseline, seated AOBP DBP (50 mg QD, Week 8, Part 1, FAS): −7.09 (1.70) mmHg
Modelled (MMRM) LSM (SEM) change from baseline, seated AOBP SBP (50 mg QD, Week 8, Part 1, FAS): −13.69 (2.67) mmHg
Seated AOBP DBP change from baseline (CFB), Mean (SD) (50 mg QD, Week 8, Part 1, FAS): −8.05 (9.13) mmHg
Seated AOBP DBP, Mean (SD) (50 mg QD, Week 8, Part 1, FAS): 76.82 (9.82) mmHg
Seated AOBP SBP change from baseline (CFB), Mean (SD) (50 mg QD, Week 8, Part 1, FAS): −13.18 (17.17) mmHg
Seated AOBP SBP, Mean (SD) (50 mg QD, Week 8, Part 1, FAS): 128.64 (13.69) mmHg
Subjects with seated AOBP SBP/DBP ≤130/80 mmHg: No (50 mg QD, Week 8, Part 1, FAS): 16 (57.1) n (%)
Subjects with seated AOBP SBP/DBP ≤130/80 mmHg: Yes (50 mg QD, Week 8, Part 1, FAS): 12 (42.9) n (%)
Modelled (MMRM) LSM (SEM) change from baseline, seated AOBP DBP (100 mg QD Part 1, Week 4, Parts 1 & 2 model, FAS): −5.88 (1.49) mmHg
Modelled (MMRM) LSM (SEM) change from baseline, seated AOBP DBP [1]: −4.57 (1.53) mmHg
Modelled (MMRM) LSM (SEM) change from baseline, seated AOBP SBP [1]: −12.08 (2.68) mmHg
